In the experiment the test system is TNFa release from stimulated peripheral blood monocytes (PBMCs). Put plainly: Inhibition by ethyl pyruvate of TNFa release from LPS-stimulated PBMCs (ELISA). The note with it: for TNFa release, LPS (5 ug/ml) / TNFa release, LPS (10 ug/ml): ELISA; for inhibition at 5000 µM / inhibition at 10000 µM / inhibition at 25000 µM / inhibition at 50000 µM: PBMC. It counts as cell-based. The method, then:
The Effect of Alpha-Ketoalkanoic Acid on TNFa Release from Stimulated Peripheral Blood Monocytes (PBMCS)
The cells were cultured in RPMI 1640 supplemented with 1% serum albumin for approximately 12 hours before treating with LPS (Lipopolysaccharide from E. Coli) at increasing concentrations to induce TNFa release. […] The effects of ethyl pyruvate (EP) on PBMC=s macrophages cultures with 5-10 micrograms of LPS was used to stimulate relase of TNFa.
Inhibition by Ethyl Pyruvate of TNFa Release (Measured via ELISA Assay)

Structures are written as SMILES.

We go through one compound from US20090012163A1, “Compositions containing Mg/Zn/F-CaP plus inhibitors of pro-inflammatory cytokines (alpha ketoalkanoic acid compound) for osteoporosis prevention, therapy and treatment of bone diseases” (priority 2007, published 2009).

Regarding `CCOC(=O)C(C)=O` [EP, ethyl pyruvate], the “TNFa release, LPS (5 ug/ml)” value (EP 5 mM, LPS 5 ug/ml) is 450 arbitrary fluorescence units; the “TNFa release, LPS (5 ug/ml)” value (EP 10 mM, LPS 5 ug/ml) was 275 arbitrary fluorescence units; the “TNFa release, LPS (5 ug/ml)” value (EP 25 mM, LPS 5 ug/ml) was 201 arbitrary fluorescence units; the “TNFa release, LPS (5 ug/ml)” value (EP 50 mM, LPS 5 ug/ml) is recorded as 200 arbitrary fluorescence units. Further, the “TNFa release, LPS (10 ug/ml)” value by setting is: (EP 5 mM, LPS 10 ug/ml) 480 arbitrary fluorescence units; (EP 10 mM, LPS 10 ug/ml) 310 arbitrary fluorescence units; (EP 25 mM, LPS 10 ug/ml) 190 arbitrary fluorescence units; (EP 50 mM, LPS 10 ug/ml) 180 arbitrary fluorescence units. Moreover, the “Inhibition of TNFa release (in words)” value (LPS & EP incubated in the cultures, different concentrations) is reported as “effective inhibitor of TNFa release”. Also, at 5000 µM the inhibition (EP 5 mM, LPS 5 ug/ml) was 12% and 5000 µM produced 6% inhibition (EP 5 mM, LPS 10 ug/ml). Moreover, the inhibition at 10000 µM turned out to be 47% (EP 10 mM, LPS 5 ug/ml) and 59% (EP 10 mM, LPS 10 ug/ml). Further, the inhibition at 25000 µM worked out at 51% (EP 25 mM, LPS 5 ug/ml) and 75% (EP 25 mM, LPS 10 ug/ml). The inhibition at 50000 µM reads like this: (EP 50 mM, LPS 5 ug/ml) 51%; (EP 50 mM, LPS 10 ug/ml) 76%.
